System: mouse model of NASH
Test: Mouse NASH model (high fat diet + CCl4), Compound 3 and Compound 2 alone and combined
Assay type: in vivo
Details: liver RNAseq vs vehicle NASH control, 28 d; Compound 3 3 mg/kg, Compound 2 1 mg/kg; adj. p<0.05, fold-change >1.5
Description: C57BL/6J mice were fed a high fat diet for 10 weeks to induce obesity (>38 g BW). Obese mice were injected intraperitoneally (i.p.) twice a week for four weeks with […] 25% CCl4 (formulated in olive oil) to induce fibrosis, and one group of normal BW mice were injected i.p. twice a week for four weeks with olive oil to serve as a healthy control. During the same dosing period, obese mice were fed orally once a day for 28 days with vehicle, Compound 3 or Compound 2 as single agents or in combination. On CCl4 dosing days, CCl4 was administered at 4 hours post compound or vehicle dosing. On day 27, all animals were fasted for about 16 hours before terminal euthanasia. On day 28, all animals were sacrificed and liver samples were collected for whole transcriptome analysis by RNA sequencing (RNAseq). RNAseq library (n=5 per group) preparation and sequencing was performed using Illumina standard protocols. Alignment of sequencing reads was performed using STAR aligner software and read counts were estimated using RSEM. Differentially expressed genes (compared to vehicle-treated NASH control mice) were determined using EdgeR software. Gene ontology analysis was performed using Advaita software with fold-change and adjusted p-value cutoffs of >1.5 and <0.05, respectively. Gene ontologies were derived from the Gene Ontology Consortium database (2019 Apr. 26) (Ashburner et al., Gene ontology: Tool for the unification of biology. Nature Genetics 25(1): 25-9 (2000); Gene Ontology Consortium, Creating the Gene Ontology Resource: Design and Implementation. Genome Research 11: 1425-1433 (2001)).
Gene ontology (GO) enrichment analysis was used to understand the potential biological consequences of the results in Table 22. To perform GO term enrichment analysis, the number (i.e., enrichment) of DEGs annotated for a particular term (i.e. biology process) was compared to the number of DEGs expected solely by chance. An over-representation approach was used to compute statistical significance (p-value) of observing at least the given number of DEGs; p-values were corrected for multiple comparisons.
On day 28 of treatment as described in Example 14, animals were euthanized for sample collections. Analysis of cholesterol, triglycerides, and ALT was done using a Hitachi 7180 clinical analyzer. Liver samples were processed for lipid quantification (colorimetric assays, SpectraMax 340PC384), histology, and RNA analysis. RNAseq library preparation (n=5 per group) and sequencing was performed using Illumina standard protocols. Alignment of sequencing reads was performed using STAR aligner and read counts were estimated using RSEM. Differentially expressed genes (DEGs) relative to NASH control were determined using EdgeR. Gene ontology analysis was performed using Advaita software.

SMILES	Down DEGs	Total DEGs	Up DEGs
N#Cc1nn(-c2cc(Cl)c(Oc3n[nH]c(=O)c4ccccc34)c(Cl)c2)c(=O)[nH]c1=O [Compound 2, 2-(3,5-dichloro-4-((4-oxo-3,4-dihydrophthalazin-1-yl)oxy)phenyl)-3,5-dioxo-2,3,4,5-tetrahydro-1,2,4-triazine-6-carbonitrile]	635	1113	478
Cn1cc(C(=O)O)c2ccc(N3CCC(OCc4c(-c5c(Cl)cccc5Cl)noc4C4CC4)CC3)cc21 [Compound 3]	271	617	346

Source: patent publication US20230241071A1, “COMBINATION TREATMENT OF LIVER DISORDERS” (Terns Pharmaceuticals, Inc., priority 2021, published 2023)
